The values below come from ChEMBL document CHEMBL4765444, “Chimera induced protein degradation: PROTACs and beyond” (Eur J Med Chem, 2020).

One test has as its system HEK293. The test is described as follows: Induction of VHL-mediated SGK3 degradation in HEK293 cells at 10 uM incubated for 48 hrs by immunoblot analysis relative to control. The settings on record: Homo sapiens. In kind it is cell-based.
Test [1] concerns the target Protein cereblon/Tyrosine-protein kinase ABL1/Breakpoint cluster region protein (Homo sapiens) (UniProt P00519+P11274+Q96SW2). The test is described as follows: Induction of CRBN-mediated BCR-ABL degradation in human K562 cells at 1 uM incubated for 24 hrs by Western blot analysis relative to control. In kind it is cell-based.

Protein cereblon/Tyrosine-protein kinase ABL1/Breakpoint cluster region protein (Homo sapiens), sequence (P00519 whole entry, looked up): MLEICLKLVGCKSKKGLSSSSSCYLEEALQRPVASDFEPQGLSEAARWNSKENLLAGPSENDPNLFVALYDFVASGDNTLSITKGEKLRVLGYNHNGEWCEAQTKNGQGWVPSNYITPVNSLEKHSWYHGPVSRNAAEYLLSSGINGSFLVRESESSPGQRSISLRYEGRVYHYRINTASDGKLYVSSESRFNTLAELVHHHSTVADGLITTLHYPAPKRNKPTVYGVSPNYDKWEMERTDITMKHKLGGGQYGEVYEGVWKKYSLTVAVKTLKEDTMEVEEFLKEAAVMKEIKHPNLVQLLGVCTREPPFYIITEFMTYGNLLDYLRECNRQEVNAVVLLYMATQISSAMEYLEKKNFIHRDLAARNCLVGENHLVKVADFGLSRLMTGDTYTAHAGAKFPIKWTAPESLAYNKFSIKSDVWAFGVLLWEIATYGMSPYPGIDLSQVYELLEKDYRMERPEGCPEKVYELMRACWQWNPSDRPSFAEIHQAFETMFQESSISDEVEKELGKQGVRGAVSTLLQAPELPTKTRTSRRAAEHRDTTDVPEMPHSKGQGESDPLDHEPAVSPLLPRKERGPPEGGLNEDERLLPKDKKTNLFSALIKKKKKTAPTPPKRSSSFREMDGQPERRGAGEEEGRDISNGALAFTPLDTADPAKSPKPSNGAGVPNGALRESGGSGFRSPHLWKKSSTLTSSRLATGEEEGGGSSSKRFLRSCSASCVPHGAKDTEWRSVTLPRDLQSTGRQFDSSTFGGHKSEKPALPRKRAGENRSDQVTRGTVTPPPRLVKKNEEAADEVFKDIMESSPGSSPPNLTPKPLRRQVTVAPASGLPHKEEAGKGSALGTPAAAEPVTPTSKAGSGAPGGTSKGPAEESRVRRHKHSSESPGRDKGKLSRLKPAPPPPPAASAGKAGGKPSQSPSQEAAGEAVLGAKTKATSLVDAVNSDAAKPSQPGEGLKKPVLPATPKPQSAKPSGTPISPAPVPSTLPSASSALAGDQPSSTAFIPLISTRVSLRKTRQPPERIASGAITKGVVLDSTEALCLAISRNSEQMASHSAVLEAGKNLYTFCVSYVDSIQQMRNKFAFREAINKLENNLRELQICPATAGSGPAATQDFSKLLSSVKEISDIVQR
Protein cereblon/Tyrosine-protein kinase ABL1/Breakpoint cluster region protein (Homo sapiens), sequence (P11274 whole entry, looked up): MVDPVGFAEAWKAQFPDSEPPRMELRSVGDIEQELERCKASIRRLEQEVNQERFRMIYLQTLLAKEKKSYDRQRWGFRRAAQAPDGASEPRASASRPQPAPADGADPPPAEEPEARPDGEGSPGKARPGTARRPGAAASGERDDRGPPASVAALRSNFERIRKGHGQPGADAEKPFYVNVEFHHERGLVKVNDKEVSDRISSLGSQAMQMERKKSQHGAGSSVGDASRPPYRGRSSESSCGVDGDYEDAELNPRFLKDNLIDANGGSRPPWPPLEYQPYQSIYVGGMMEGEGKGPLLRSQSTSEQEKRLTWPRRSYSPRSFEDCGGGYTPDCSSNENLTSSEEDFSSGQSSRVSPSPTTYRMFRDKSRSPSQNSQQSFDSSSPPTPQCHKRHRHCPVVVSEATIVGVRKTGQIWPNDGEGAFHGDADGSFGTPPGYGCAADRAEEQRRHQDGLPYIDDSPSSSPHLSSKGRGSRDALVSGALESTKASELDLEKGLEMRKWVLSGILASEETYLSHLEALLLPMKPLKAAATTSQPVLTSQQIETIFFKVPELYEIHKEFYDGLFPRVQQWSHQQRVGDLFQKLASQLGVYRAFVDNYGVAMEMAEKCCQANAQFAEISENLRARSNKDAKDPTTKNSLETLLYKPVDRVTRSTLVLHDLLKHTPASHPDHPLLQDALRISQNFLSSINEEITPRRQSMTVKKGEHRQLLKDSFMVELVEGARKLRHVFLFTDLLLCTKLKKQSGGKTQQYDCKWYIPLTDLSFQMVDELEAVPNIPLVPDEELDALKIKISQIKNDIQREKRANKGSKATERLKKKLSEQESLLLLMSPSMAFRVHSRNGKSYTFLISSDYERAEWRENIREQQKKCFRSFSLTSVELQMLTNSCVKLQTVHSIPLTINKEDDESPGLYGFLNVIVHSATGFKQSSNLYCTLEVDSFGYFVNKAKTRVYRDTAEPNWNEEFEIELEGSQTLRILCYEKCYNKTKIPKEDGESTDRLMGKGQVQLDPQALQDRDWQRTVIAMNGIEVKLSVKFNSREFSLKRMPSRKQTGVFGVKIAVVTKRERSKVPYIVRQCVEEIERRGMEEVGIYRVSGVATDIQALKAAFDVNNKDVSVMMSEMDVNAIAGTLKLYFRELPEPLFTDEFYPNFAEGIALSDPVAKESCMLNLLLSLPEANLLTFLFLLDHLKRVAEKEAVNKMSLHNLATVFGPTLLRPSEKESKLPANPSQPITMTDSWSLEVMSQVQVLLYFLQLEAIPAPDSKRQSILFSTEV
Protein cereblon/Tyrosine-protein kinase ABL1/Breakpoint cluster region protein (Homo sapiens), sequence (Q96SW2 whole entry, looked up): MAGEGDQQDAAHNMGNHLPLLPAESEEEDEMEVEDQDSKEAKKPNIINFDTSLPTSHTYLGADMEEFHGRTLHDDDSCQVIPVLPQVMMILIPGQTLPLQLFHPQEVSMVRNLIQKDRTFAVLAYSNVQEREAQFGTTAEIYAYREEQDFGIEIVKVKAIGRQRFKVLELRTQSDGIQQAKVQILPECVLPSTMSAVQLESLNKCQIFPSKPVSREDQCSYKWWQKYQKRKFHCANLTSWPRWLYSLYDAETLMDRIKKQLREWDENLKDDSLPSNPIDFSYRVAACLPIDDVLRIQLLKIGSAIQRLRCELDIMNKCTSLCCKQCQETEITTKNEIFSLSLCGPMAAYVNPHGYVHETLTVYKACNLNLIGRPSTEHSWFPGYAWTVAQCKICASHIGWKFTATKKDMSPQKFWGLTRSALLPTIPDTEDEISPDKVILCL

With `Cc1ccc(F)c(S(=O)(=O)Nc2ccc(-c3nc(OC[C@H]4CN(CCCCCCOCCCCCCOCC(=O)N[C@H](C(=O)N5C[C@H](O)C[C@H]5C(=O)NCc5ccc(-c6scnc6C)cc5)C(C)(C)C)CCO4)c4cn[nH]c4n3)cc2)c1`, the Activity with HEK293 is more than 50%.

In the test on HEK293, `COc1ccc(Cl)c(S(=O)(=O)Nc2ccc(-c3nc(OC[C@H]4CN(CCCCCCOCCOCCOCCOCC(=O)N[C@H](C(=O)N5C[C@H](O)C[C@H]5C(=O)NCc5ccc(-c6scnc6C)cc5)C(C)(C)C)CCO4)c4c(C)n[nH]c4n3)cc2)c1` yielded an Activity of more than 50%.

`Cc1ccc(F)c(S(=O)(=O)Nc2ccc(-c3nc(OC[C@H]4CN(CCOCCOCC(=O)N[C@H](C(=O)N5C[C@H](O)C[C@H]5C(=O)NCc5ccc(-c6scnc6C)cc5)C(C)(C)C)CCO4)c4cn[nH]c4n3)cc2)c1` gave an Activity in the test with HEK293 of more than 50%.

`Cc1ccc(F)c(S(=O)(=O)Nc2ccc(-c3nc(OC[C@H]4CN(CCOCCOCCOCCOCC(=O)N[C@H](C(=O)N5C[C@H](O)C[C@H]5C(=O)NCc5ccc(-c6scnc6C)cc5)C(C)(C)C)CCO4)c4cn[nH]c4n3)cc2)c1` yielded an Activity in the test on HEK293 of more than 50%.

In turn, `Cc1ccc(F)c(S(=O)(=O)Nc2ccc(-c3nc(OC[C@H]4CN(CCOCCOCCOCC(=O)N[C@H](C(=O)N5C[C@H](O)C[C@H]5C(=O)NCc5ccc(-c6scnc6C)cc5)C(C)(C)C)CCO4)c4cn[nH]c4n3)cc2)c1` gave an Activity in the test on HEK293 of more than 50%.

`Cc1nc(Nc2ncc(C(=O)Nc3c(C)cccc3Cl)s2)cc(N2CCN(CCCCCCOCCOCCOCCCCCC(=O)Nc3cccc4c3C(=O)N(C3CCC(=O)NC3=O)C4=O)CC2)n1` (stereo not given) displayed an Activity in test [1] of more than 60%.

Turning to `Cc1ccc(F)c(S(=O)(=O)Nc2ccc(-c3nc(OC[C@H]4CN(CCCCCCOCCOCCOCC(=O)N[C@H](C(=O)N5C[C@H](O)C[C@H]5C(=O)NCc5ccc(-c6scnc6C)cc5)C(C)(C)C)CCO4)c4cn[nH]c4n3)cc2)c1`, the Activity in the test with HEK293 is more than 50%.

On to `Cc1ccc(F)c(S(=O)(=O)Nc2ccc(-c3nc(OC[C@H]4CN(CCOCCOCCOCCOCCOCC(=O)N[C@H](C(=O)N5C[C@H](O)C[C@H]5C(=O)NCc5ccc(-c6scnc6C)cc5)C(C)(C)C)CCO4)c4cn[nH]c4n3)cc2)c1`, for which the Activity in the test with HEK293 is more than 50%.

The compound `Cc1ccc(F)c(S(=O)(=O)Nc2ccc(-c3nc(OC[C@H]4CN(CCCCCCOCCOCCOCCOCC(=O)N[C@H](C(=O)N5C[C@H](O)C[C@H]5C(=O)NCc5ccc(-c6scnc6C)cc5)C(C)(C)C)CCO4)c4cn[nH]c4n3)cc2)c1` displayed an Activity in the test on HEK293 of more than 50%.

Regarding `COc1ccc(Cl)c(S(=O)(=O)Nc2ccc(-c3nc(OC[C@H]4CN(CCCCCCOCCCCCCOCC(=O)N[C@H](C(=O)N5C[C@H](O)C[C@H]5C(=O)NCc5ccc(-c6scnc6C)cc5)C(C)(C)C)CCO4)c4c(C)n[nH]c4n3)cc2)c1`, the Activity in the test with HEK293 was more than 50%.
